Results as given in patent US7855213B2 (AstraZeneca AB, priority 2006, dated 2010).
Counter-ions that a name gives are not always drawn.

Biological target: T1, human β-Secretase (Homo sapiens, UniProt P56817)
T1 construct: The soluble part of the human β-Secretase (AA 1-AA 460) was cloned; made in house
Assay: TR-FRET assay
Type: biochemical

T1 sequence (P56817 22-460): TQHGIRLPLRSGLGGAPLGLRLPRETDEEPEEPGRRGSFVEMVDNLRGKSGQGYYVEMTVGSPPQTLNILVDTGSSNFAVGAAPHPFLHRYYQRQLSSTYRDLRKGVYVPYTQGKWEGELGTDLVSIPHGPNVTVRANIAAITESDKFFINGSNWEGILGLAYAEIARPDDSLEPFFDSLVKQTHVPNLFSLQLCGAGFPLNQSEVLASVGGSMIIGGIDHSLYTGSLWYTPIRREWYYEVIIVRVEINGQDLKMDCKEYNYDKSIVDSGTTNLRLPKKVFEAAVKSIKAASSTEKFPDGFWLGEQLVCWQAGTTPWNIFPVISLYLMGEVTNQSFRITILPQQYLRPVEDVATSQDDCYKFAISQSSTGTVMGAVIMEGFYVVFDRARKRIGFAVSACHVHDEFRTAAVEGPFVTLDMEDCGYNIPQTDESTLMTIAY

Row | Structure (SMILES) | IC50
1 | COc1cc(OS(C)(=O)=O)cc(-c2cccc(C3(c4ccc(OS(C)(=O)=O)cc4)N=C(N)c4ccccc43)c2)c1 (stereo not shown) [Example 41, Methanesulfonic acid 4-[3-amino-1-(5′-methane-sulfonyloxy-3′-methoxy-biphenyl-3-yl)-1H-isoindol-1-yl]-phenyl ester trifluoroacetate] | 0.575 µM
2 | NC1=NC(c2ccncc2)(c2cccc(-c3cccnc3)c2)c2ccccc21 (stereo not shown) [Example 44, 3-Pyridin-4-yl-3-(3-pyridin-3-yl-phenyl)-3H-isoindol-1-ylamine trifluoroacetate] | 0.213 µM
3 | NC1=NC(c2ccncc2)(c2cccc(-c3cncnc3)c2)c2ccccc21 (stereo not shown) [Example 45, 3-Pyridin-4-yl-3-(3-pyrimidin-5-yl-phenyl)-3H-isoindol-1-ylamine trifluoroacetate] | 0.501 µM
4 | COc1ccc(C2(c3cccc(-c4ccsc4C=O)c3)N=C(N)c3ccccc32)cc1 (stereo not shown) [Example 48, 3-{3-[3-Amino-1-(4-methoxyphenyl)-1H-isoindol-1-yl]phenyl}thiophene-2-carbaldehyde 1.5 acetate] | 0.3 µM
5 | COc1ccc(C2(c3cccc(-c4ccc(C)o4)c3)N=C(N)c3ccccc32)cc1 (stereo not shown) [Example 54, 1-(4-Methoxyphenyl)-1-[3-(5-methyl-2-furyl)phenyl]-1H-isoindol-3-amine 0.5 acetate] | 1 µM
6 | COc1ccc(C2(c3cccc(-c4ccccc4C(N)=O)c3)N=C(N)c3ccccc32)cc1 (stereo not shown) [Example 55, 3′-[3-Amino-1-(4-methoxyphenyl)-1H-isoindol-1-yl]biphenyl-2-carboxamide 0.5 acetate] | 2 µM
7 | N#Cc1ccc(C2(c3cccc(-c4cncnc4)c3)N=C(N)c3ccccc32)cc1 (stereo not shown) [Example 58, 4-[3-Amino-1-(3-pyrimidin-5-ylphenyl)-1H-isoindol-1-yl]benzonitrile 0.25 acetate] | 0.71 µM
8 | NC1=NC(c2ccc(C(F)(F)F)cc2)(c2cccc(-c3cncc(F)c3)c2)c2ccccc21 (stereo not shown) [Example 59, 1-[3-(5-Fluoropyridin-3-yl)phenyl]-1-[4-(trifluoromethyl)phenyl]-1H-isoindol-3-amine 0.25 acetate] | 0.63 µM
9 | NC1=NC(c2ccc(C(F)(F)F)cc2)(c2cccc(-c3cncnc3)c2)c2ccccc21 (stereo not shown) [Example 60, 1-(3-Pyrimidin-5-ylphenyl)-1-[4-(trifluoromethyl)phenyl]1H-isoindol-3-amine 0.25 acetate] | 0.57 µM
10 | NC1=NC(c2ccncc2)(c2cccc(-c3ccsc3C=O)c2)c2ccccc21 (stereo not shown) [Example 61, 3-[3-(3-Amino-1-pyridin-4-yl-1H-isoindol-1-yl)phenyl]thiophene-2-carbaldehyde] | 2 µM
11 | CC(C)Cn1cc(-c2cccc(C3(c4ccncc4)N=C(N)c4ccccc43)c2)cn1 (stereo not shown) [Example 62, 1-[3-(1-Isobutyl-1H-pyrazol-4-yl)phenyl]-1-pyridin-4-yl-1H-isoindol-3-amine 0.25] | > 10 µM
12 | Cc1ccc(-c2cccc(C3(c4ccncc4)N=C(N)c4ccccc43)c2)o1 (stereo not shown) [Example 63, 1-[3-(5-Methyl-2-furyl)phenyl]-1-pyridin-4-yl-1H-isoindol-3-amine acetate] | 1.1 µM
13 | NC(=O)c1ccccc1-c1cccc(C2(c3ccncc3)N=C(N)c3ccccc32)c1 (stereo not shown) [Example 64, 3′-(3-Amino-1-pyridin-4-yl-1H-isoindol-1-yl)biphenyl-2-carboxamide 0.25 acetate] | > 3.1 µM
14 | N#Cc1ccc(C2(c3cccc(-c4cccnc4F)c3)N=C(N)c3ccccc32)cc1 (stereo not shown) [Example 65, 4-{3-Amino-1-[3-(2-fluoropyridin-3-yl)phenyl]-1H-isoindol-1-yl}benzonitrile] | 0.4 µM
15 | NC1=NC(c2ccc(C(F)(F)F)cc2)(c2cccc(-c3cccnc3F)c2)c2ccccc21 (stereo not shown) [Example 66, 1-[3-(2-Fluoropyridin-3-yl)phenyl]-1-[4-(trifluoromethyl)phenyl]-1H-isoindol-3-amine] | 0.52 µM
16 | NC1=NC(c2cccc(-c3cncnc3)c2)(c2ccncc2F)c2ccccc21 (stereo not shown) [Example 72, 1-(3-Fluoropyridin-4-yl)-1-(3-pyrimidin-5-ylphenyl)-1H-isoindol-3-amine 1.25 acetate] | 0.25 µM
17 | NC1=NC(c2ccc(F)c(-c3cncc(F)c3)c2)(c2ccncc2F)c2ccccc21 (stereo not shown) [Example 75, 1-[4-Fluoro-3-(5-fluoropyridin-3-yl)phenyl]-1-(3-fluoropyridin-4-yl)-1H-isoindol-3-amine 1.5 acetate] | 0.28 µM

Now those with a lower IC50, led by results:

Row | IC50 | Structure (SMILES)
18 | 0.11 µM | NC1=NC(c2ccncc2)(c2cccc(-c3cccnc3F)c2)c2ccccc21 (stereo not shown) [Example 42, 3-[3-(2-Fluoro-pyridin-3-yl)-phenyl]-3-pyridin-4-yl-3H-isoindol-1-ylamine trifluoroacetate]
19 | 0.098 µM | COc1cncc(-c2cccc(C3(c4ccncc4)N=C(N)c4ccccc43)c2)c1 (stereo not shown) [Example 46, 3-[3-(5-Methoxy-pyridin-3-yl)-phenyl]-3-pyridin-4-yl-3H-isoindol-1-ylamine trifluoroacetate]
20 | 0.055 µM | COc1cccc(-c2cccc(C3(c4ccncc4)N=C(N)c4ccccc43)c2)c1 (stereo not shown) [Example 47, 3-(3′-Methoxy-biphenyl-3-yl)-3-pyridin-4-yl-3H-isoindol-1-ylamine trifluoroacetate]
21 | 0.2 µM | NC1=NC(c2ccc(OC(F)(F)F)cc2)(c2cccc(-c3cncc(F)c3)c2)c2ccccc21 (stereo not shown) [Example 56, 1-[3-(5-Fluoropyridin-3-yl)phenyl]-1-[4-(trifluoromethoxy)phenyl]-1H-isoindol-3-amine 0.75 acetate]
22 | 0.18 µM | NC1=NC(c2ccc(OC(F)(F)F)cc2)(c2cccc(-c3cncnc3)c2)c2ccccc21 (stereo not shown) [Example 57, 1-(3-Pyrimidin-5-ylphenyl)-1-[4-(trifluoromethoxy)phenyl]-1H-isoindol-3-amine 0.25 acetate]
23 | 0.092 µM | NC1=NC(c2ccncc2)(c2cccc(-c3cncc(F)c3)c2)c2ccccc21 (stereo not shown) [Example 67, 1-[3-(5-Fluoropyridin-3-yl)phenyl]-1-pyridin-4-yl-1H-isoindol-3-amine 0.75 acetate]
24 | 0.081 µM | NC1=NC(c2ccncc2)(c2ccc(F)c(-c3cncnc3)c2)c2ccccc21 (stereo not shown) [Example 68, 1-(4-Fluoro-3-pyrimidin-5-ylphenyl)-1-pyridin-4-yl-1H-isoindol-3-amine 0.5 acetate]
25 | 0.099 µM | NC1=NC(c2ccncc2)(c2ccc(F)c(-c3cncc(F)c3)c2)c2ccccc21 (stereo not shown) [Example 69, 1-[4-Fluoro-3-(5-fluoropyridin-3-yl)phenyl]-1-pyridin-4-yl-1H-isoindol-3-amine 0.75 acetate]
26 | 0.19 µM | NC1=NC(c2cccc(-c3cncc(F)c3)c2)(c2ccncc2F)c2ccccc21 (stereo not shown) [Example 71, 1-(3-Fluoropyridin-4-yl)-1-[3-(5-fluoropyridin-3-yl)phenyl]-1H-isoindol-3-amine 0.5 acetate]
27 | 0.13 µM | NC1=NC(c2cccc(-c3cccnc3F)c2)(c2ccncc2F)c2ccccc21 (stereo not shown) [Example 73, 1-(3-Fluoropyridin-4-yl)-1-[3-(2-fluoropyridin-3-yl)phenyl]-1H-isoindol-3-amine 1.25 acetate]
28 | 0.15 µM | NC1=NC(c2ccc(F)c(-c3cncnc3)c2)(c2ccncc2F)c2ccccc21 (stereo not shown) [Example 74, 1-(3-Fluoropyridin-4-yl)-1-(4-fluoro-3-pyrimidin-5-ylphenyl)-1H-isoindol-3-amine 1.25 acetate]
